Reference: ChEMBL document CHEMBL1142324, “Synthesis and cerebral uptake of 1-(1-[(11)C]methyl-1H-pyrrol-2-yl)-2-phenyl-2-(1-pyrrolidinyl)ethanone, a novel tracer for positron emission tomography studies of monoamine oxidase type A” (J Med Chem, 2008)

Tests used:
Assay type in all cases: ADME, organism-based, Sus scrofa
Conditions in all cases: read-out: Stability
[1] = Metabolic stability in iv dosed pig plasma after 50 mins
[2] = Metabolic stability in iv dosed pig plasma after 30 mins
[3] = Metabolic stability in iv dosed pig plasma after 30 seconds
[4] = Metabolic stability in iv dosed pig plasma after 10 mins
[5] = Metabolic stability in iv dosed pig plasma after 2 mins

SMILES | remaining at 50 min [1] | remaining at 0.5 h [2] | remaining at 0.5 min [3] | remaining at 10 min [4] | remaining at 2 min [5]
[11CH3]n1cccc1C(=O)[C@H](c1ccccc1)N1CCCC1 | 24% | 41% | 99.7% | 68% | 98%
[11CH3]n1cccc1C(=O)[C@@H](c1ccccc1)N1CCCC1 | 24% | 41% | 99.7% | 68% | 98%
